The target in test [1] is T1, p38alpha (Homo sapiens, UniProt Q16539).
T1 construct: purchased Invitrogen PV3304
Description: P38alpha enzyme inhibition assay (Alphascreen kinase activity assay). Particulars: IC50 classes; 2 hours preincubation at 25° C., 250 μM ATP; read-out: p38α inhibition. The format is biochemical. An outline of the steps: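 p38alpha with 0.3 μg/ml ATF-2 fusion protein in HEPES pH 7.5 buffer (10 mM MgCl2, 2 mM DTT, 1% DMSO); compounds preincubated 2 h at 25° C, then 250 μM ATP added for 1 h at 25° C. Phospho-ATF2 detected by AlphaScreen luminescence with anti-phospho-ATF2 antibody; IC50 from concentration-response curves.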

Test [2] relates to Peripheral Blood Mononuclear Cells (PBMCs). Description: LPS-stimulated PBMC TNFα release assay. The format is cell-based. As to conditions: IC50 classes; human PBMC, LPS 10 ng/ml, 18 h; read-out: LPS-stimulated PBMC TNFα release inhibition. An outline of the steps:
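Human PBMCs from healthy donors, adhered 3 h in serum-free RPMI, received compound for 1 h in 1% FBS medium before 10 ng/ml LPS for 18 h. Supernatant TNFα was measured by MSD; IC50 from percentage inhibition of control release, at least three separate experiments.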

Test [3] deals with BEAS-2B cells. Description: TNFα-stimulated BEAS-2B IL-8 release assay. Type of test: cell-based. As to conditions: Homo sapiens, IC50 classes, TNF-α 10 ng/ml, 18 h, read-out: TNFα-stimulated BEAS-2B IL-8 release inhibition. As to the method:
TNFα-Stimulated BEAS-2B IL-8 Release Assay
Human bronchial epithelial cell line BEAS-2B was purchased from Sigma (St. Louis, Mo.). BEAS-2B cells were cultured in Bronchial Epithelial cell Growth Medium (BEGM), prepared by supplementing Bronchial Epithelial Basal Medium with SingleQuotes™ (Lonza, Switzerland), which contains retinoic acid, epidermal growth factor, epinephrine, transferrin, triiodothyronin, insulin, hydrocortisone, antimicrobial agents, and bovine pituitary extract. In addition, BEGM medium was supplemented with 2 mM glutamine, 100 U penicillin and 100 μg/ml streptomycin (Life Technologies), in an atmosphere of 95% air and 5% CO2 at 37° C.
BEAS-2B were seeded in 48-well plates at the density of 3×10^4 cells per well, grown to approximately 80-90% confluence. Cells were pre-incubated with p38 inhibitors for 1 hour and then stimulated with TNF-α (10 ng/ml) for 18 h at 37° C. with 5% CO2. Subsequently, supernatants were collected and used for measuring IL-8 levels using a paired antibody quantitative ELISA kit purchased from Life Technologies (detection limit: […]). All the treatments were performed at least in quadruplicate.
A concentration-response curve to each test compound was performed and the effect of compound in each experiment was expressed as a percentage inhibition of the control IL-8 release. Compound potency (IC50) was calculated by the analysis of the sigmoidal dose-response curve (variable slope) elaborated by Graph Pad PRISM4 program.

pIC50: −log10 of the molar value. Where a name gives a salt, the structure may show the parent alone.

T1 sequence (Q16539 whole entry): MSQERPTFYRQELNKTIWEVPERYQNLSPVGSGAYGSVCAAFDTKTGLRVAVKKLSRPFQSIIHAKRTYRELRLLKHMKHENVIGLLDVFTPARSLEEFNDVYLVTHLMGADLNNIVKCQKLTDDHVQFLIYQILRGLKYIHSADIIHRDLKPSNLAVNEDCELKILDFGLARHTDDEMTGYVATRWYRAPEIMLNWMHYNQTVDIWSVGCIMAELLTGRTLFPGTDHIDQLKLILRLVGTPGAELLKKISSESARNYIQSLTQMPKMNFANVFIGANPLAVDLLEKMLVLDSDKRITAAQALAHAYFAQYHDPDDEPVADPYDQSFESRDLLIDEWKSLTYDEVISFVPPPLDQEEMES

For `CCN1CCC[C@@]1(C)c1nnc2ccc(O[C@@H]3CC[C@H](NC(=O)Nc4cc(NS(C)(=O)=O)cc(C(C)(C)C)c4)c4ccccc43)cn12` [Example 27, N-[3-tert-Butyl-5-(3-{(1S,4R)-4-[3-((S)-1-ethyl-2-methyl-pyrrolidin-2-yl)-[1,2,4]triazolo[4,3-a]pyridin-6-yloxy]-1,2,3,4-tetrahydro-naphthalen-1-yl}-ureido)-phenyl]-methanesulfonamide], the pIC50 is greater than 9.00 in test [1], greater than 9.00 in test [2] and greater than 9.52 in test [3].
Regarding `COc1c(CO)cc(C(C)(C)C)cc1NC(=O)N[C@H]1CC[C@@H](Oc2ccc3nnc([C@]4(C)CCCN4C)n3c2)c2ccccc21` [Example 3, 1-(5-tert-Butyl-3-hydroxymethyl-2-methoxy-phenyl)-3-{(1S,4R)-4-[-3-((S)-1,2-dimethyl-pyrrolidin-2-yl)-[1,2,4]triazolo[4,3-a]pyridin-6-yloxy]-1,2,3,4-tetrahydro-naphthalen-1-yl}-urea hydrochloride salt], the pIC50 in test [1] is greater than 9.00; in test [2], greater than 9.00; in test [3] it was greater than 9.52.
Consider `COc1c(CO)cc(C(C)(C)C)cc1NC(=O)N[C@H]1CC[C@@H](Oc2ccc3nnc([C@@H]4CCCN4C)n3c2)c2ccccc21` [Example 2, 1-(5-tert-Butyl-3-hydroxymethyl-2-methoxy-phenyl)-3-{(1S,4R)-4-[-3-((S)-1-methyl-pyrrolidin-2-yl)-[1,2,4]triazolo[4,3-a]pyridin-6-yloxy]-1,2,3,4-tetrahydro-naphthalen-1-yl}-urea], for which the pIC50 in test [1] is greater than 9.00; in test [2], greater than 9.00; in test [3], greater than 9.52.
On to `CCS(=O)(=O)Nc1cc(C(C)(C)C)cc(NC(=O)N[C@H]2CC[C@@H](Oc3ccc4nnc(C(C)(C)N(C)C)n4c3)c3ccccc32)c1OC` [Example 13, Ethanesulfonic acid [5-tert-butyl-3-(3-{(1S,4R)-4-[3(1-dimethylamino-1-methyl-ethyl)-[1,2,4]triazolo[4,3-a]pyridin-6-yloxy]-1,2,3,4-tetrahydro-naphthalen-1-yl}-ureido)-2-methoxy-phenyl]-amide hydrochloride salt], for which the pIC50 in test [1] is 8.00 to 9.00; in test [2], greater than 9.00; in test [3], greater than 9.52.
The matching figures for `CN1CCC[C@@]1(C)c1nnc2ccc(O[C@@H]3CC[C@H](NC(=O)Nc4cc(C(C)(C)C)cc(S(C)(=O)=O)c4)c4ccccc43)cn12` [Example 47, 1-(3-tert-Butyl-5-methanesulfonyl-phenyl)-3-{(1S,4R)-4-[3-((S)-1,2-dimethyl-pyrrolidin-2-yl)-[1,2,4]triazolo[4,3-a]pyridin-6-yloxy]-1,2,3,4-tetrahydro-naphthalen-1-yl}-urea]: greater than 9.00, greater than 9.00 and greater than 9.52.
Take `CN1CC[C@H]1c1nnc2ccc(O[C@@H]3CC[C@H](NC(=O)Nc4cc(NS(C)(=O)=O)cc(C(C)(C)C)c4)c4ccccc43)cn12` [Example 63, N-[3-tert-Butyl-5-(3-{(1S,4R)-4-[3-((S)-1-methyl-azetidin-2-yl)-[1,2,4]triazolo[4,3-a]pyridin-6-yloxy]-1,2,3,4-tetrahydro-naphthalen-1-yl}-ureido)-phenyl]-methanesulfonamide]: the pIC50 in test [1] was 8.00 to 9.00; in test [2] it was less than 8.30; in test [3], less than 9.00.
For the molecule `CN(C)CCOCc1cc(NC(=O)N[C@H]2CC[C@@H](Oc3ccc4nnc([C@]5(C)CCCN5C)n4c3)c3ccccc32)cc(C(C)(C)C)c1` [Example 69], the results for the pIC50 in test [1], in test [2] and in test [3] were greater than 9.00, less than 8.30 and greater than 9.52, respectively.
For `CC(C)(C)c1cc(NC(=O)N[C@H]2CC[C@@H](Oc3ccc4nnc([C@@H]5CCCN5CCO)n4c3)c3ccccc32)cc(NS(C)(=O)=O)c1` [Example 31, N-{3-tert-Butyl-5-[3-((1S,4R)-4-{3-[(S)-1-(2-hydroxy-ethyl)-pyrrolidin-2-yl]-[1,2,4]triazolo[4,3-a]pyridin-6-yloxy}-1,2,3,4-tetrahydro-naphthalen-1-yl)-ureido]-phenyl}-methanesulfonamide], the results for the pIC50 in test [1], in test [2] and in test [3] were greater than 9.00, less than 8.30 and less than 9.00, respectively.
With `C[C@H]1CCCCN1c1nnc2ccc(O[C@@H]3CC[C@H](NC(=O)Nc4cc(CN(C)CCO)cc(C(C)(C)C)c4)c4ccccc43)cn12` [Example 68, 1-(3-tert-Butyl-5-{[(2-hydroxy-ethyl)-methyl-amino]-methyl}-phenyl)-3-{(1S,4R)-4-[3-((S)-2-methyl-piperidin-1-yl)-[1,2,4]triazolo[4,3-a]pyridin-6-yloxy]-1,2,3,4-tetrahydro-naphthalen-1-yl}-urea], the pIC50 was greater than 9.00 in test [1], less than 8.30 in test [2] and less than 9.00 in test [3].
The matching figures for `CN1CCN(C(C)(C)c2nnc3ccc(O[C@@H]4CC[C@H](NC(=O)Nc5cc(NS(C)(=O)=O)cc(C(C)(C)C)c5)c5ccccc54)cn23)CC1` [Example 62, N-{3-tert-Butyl-5-[3-((1S,4R)-4-{3-[1-methyl-1-(4-methyl-piperazin-1-yl)-ethyl]-[1,2,4]triazolo[4,3-a]pyridin-6-yloxy}-1,2,3,4-tetrahydro-naphthalen-1-yl)-ureido]-phenyl}-methanesulfonamide]: greater than 9.00, less than 8.30 and less than 9.00.
The matching figures for `CN1CCOC[C@H]1c1nnc2ccc(O[C@@H]3CC[C@H](NC(=O)Nc4cc(NS(C)(=O)=O)cc(C(C)(C)C)c4)c4ccccc43)cn12` [Example 25, N-[3-tert-Butyl-5-(3-{(1S,4R)-4-[3-((R)-4-methyl-morpholin-3-yl)-[1,2,4]triazolo[4,3-a]pyridin-6-yloxy]-1,2,3,4-tetrahydro-naphthalenyl}-ureido)-phenyl]-methanesulfonamide]: greater than 9.00, less than 8.30 and less than 9.00.
In the case of `CN1CCC[C@@]1(C)c1nnc2ccc(O[C@@H]3CC[C@H](NC(=O)Nc4cc(C(=O)NCCO)cc(C(C)(C)C)c4)c4ccccc43)cn12` [Example 51, 3-tert-Butyl-5-(3-{(1S,4R)-4-[3-((S)-1,2-dimethyl-pyrrolidin-2-yl)-[1,2,4]triazolo[4,3-a]pyridin-6-yloxy]-1,2,3,4-tetrahydro-naphthalen-1-yl}-ureido)-N-(2-hydroxy-ethyl)-benzamide], the pIC50 was greater than 9.00 in test [1], greater than 9.00 in test [2] and 9.00 to 9.52 in test [3].
Take `COc1c(CO)cc(C(C)(C)C)cc1NC(=O)N[C@H]1CC[C@@H](Oc2ccc3nnc(C(C)(C)N(C)C)n3c2)c2ccccc21` [Example 4, 1-(5-tert-Butyl-3-hydroxymethyl-2-methoxy-phenyl)-3-{(1S,4R)-4-[3-(1-dimethylamino-1-methyl-ethyl)-[1,2,4]triazolo[4,3-a]pyridin-6-yloxy]-1,2,3,4-tetrahydro-naphthalen-1-yl}-urea hydrochloride salt]: the pIC50 was greater than 9.00 in test [1], greater than 9.00 in test [2] and greater than 9.52 in test [3].
For the molecule `CN(C)C(C)(C)c1nnc2ccc(O[C@@H]3CC[C@H](NC(=O)Nc4cc(NS(C)(=O)=O)cc(C(C)(C)C)c4)c4ccccc43)cn12` [Example 19, N-[3-tert-Butyl-5-(3-{(1S,4R)-4-[3-(1-dimethylamino-1-methyl-ethyl)-[1,2,4]triazolo[4,3-a]pyridin-6-yloxy]-1,2,3,4-tetrahydro-naphthalen-1-yl}-ureido)-phenyl]-methanesulfonamide], the pIC50 is greater than 9.00 in test [1], greater than 9.00 in test [2] and greater than 9.52 in test [3].
For `CNS(=O)(=O)c1cc(NC(=O)N[C@H]2CC[C@@H](Oc3ccc4nnc([C@@H]5CCCN5C)n4c3)c3ccccc32)cc(C(C)(C)C)c1` [Example 38, 3-tert-Butyl-N-methyl-5-(3-{(1S,4R)-4-[3-((S)-1-methyl-pyrrolidin-2-yl)-[1,2,4]triazolo[4,3-a]pyridin-6-yloxy]-1,2,3,4-tetrahydro-naphthalen-1-yl}-ureido)-benzenesulfonamide], the pIC50 in test [1] is greater than 9.00; in test [2], 8.30 to 9.00; in test [3], 9.00 to 9.52.
